# Biological target: T1, Lca-QPAQ (Lca-Z9-QPAQ) (Lampronia capitella, UniProt B6CBS2)
# T1 construct: full-length ORF, 353 residues, YEpOLEX in S. cerevisiae ole1
# T1 sequence (B6CBS2 1-352): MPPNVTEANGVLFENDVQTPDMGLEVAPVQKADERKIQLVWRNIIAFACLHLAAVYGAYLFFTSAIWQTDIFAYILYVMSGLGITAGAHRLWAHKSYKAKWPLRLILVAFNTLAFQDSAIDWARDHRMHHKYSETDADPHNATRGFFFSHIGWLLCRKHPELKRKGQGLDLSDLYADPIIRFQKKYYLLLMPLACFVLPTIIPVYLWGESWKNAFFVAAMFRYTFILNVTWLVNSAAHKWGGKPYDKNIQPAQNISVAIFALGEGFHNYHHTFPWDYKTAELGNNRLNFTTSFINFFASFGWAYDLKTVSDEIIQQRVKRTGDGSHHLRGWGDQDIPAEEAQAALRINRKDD
# Test: product GC-MS with DMDS adducts, yeast ole1 complementation
# Type: cell-based
# Conditions: endogenous yeast acyl (as acyl-CoA); 30 °C; product (Z)-9-hexadecenoic acid
smiles,measurement,value
CCCCCCCCCCCCCCCC(=O)O [palmitic acid],"product GC-MS with DMDS adducts, yeast ole1 complementation",Lca-QPAQ and Hass-KPSE are encoding Z9-desaturases displaying a substrate preference for palmitic acid

# Source: paper PMC2584044, “Key biosynthetic gene subfamily recruited for pheromone production prior to the extensive radiation of Lepidoptera” (BMC Evolutionary Biology, 2008)
